Results reported in US12570645B2, “Uses of p53 x-ray co-crystal structures” (PMV Pharmaceuticals, Inc., priority 2020, dated 2026).

molecular target: T1, p53 Y220C (Homo sapiens, UniProt P04637, P309S/R273H/Y220C); assay: HTRF / TR-FRET in vitro DNA binding activity assay (SC150); format: biochemical; settings: concentration required to increase DNA binding activity of p53 Y220C by 50%; TABLE 10
T1 construct: made in house; host or cells: E. coli
Experimental: The ability of a compound of the invention to stabilize p53 Y220C and increase the DNA binding activity of p53 Y220C was measured by a homogeneous time-resolved fluorescence (HTRF) assay. Recombinant His-tagged p53 Y220C used in the HTRF assay was expressed in the bacterium E. coli. The recombinant protein was a truncation mutant containing only amino acids 94-312 of p53, which encompassed the DNA binding domain (DBD) of p53 (SEQ ID NO.: 1). The His-tagged p53 Y220C was tested for DNA binding ability with a consensus sequence of DNA (DNA duplex with a sequence of 5′-[…]-3′; SEQ ID NO.: 2). SEQ ID NO.: 2 was then conjugated with a biotin label and used in the activity assay.
The binding of the recombinant His-tagged p53 Y220C protein and the biotin-labeled consensus DNA was measured using fluorescence resonance energy transfer (FRET). For the FRET assay, the binding between the p53 mutant and the DNA sequence was measured by detecting the fluorescence of the interaction between an anti-His antibody conjugated to allophycocyanin (APC) and streptavidin conjugated to europium to detect the biotin-labeled DNA.
The test compounds were prepared as 4.5 mM stock solutions in dimethyl sulfoxide (DMSO). The compounds of the disclosure were used to test the stabilization of p53 Y220C and increase in DNA binding activity of p53 Y220C. The stock solutions were then serially diluted 3-fold in DMSO, and 1.2 μL of the diluted solutions was added to each well of a 384-well polypropylene black plate. 30 μL of a 181 nM solution of the recombinant His-tagged p53 Y220C protein and 12.1 nM of APC conjugated anti-His tag antibody in ice-cold Assay Buffer 1 (50 mM Tris-HCl, pH 7.4; 75 mM KCl; 0.75 mM DTT; and 0.2 mg/mL bovine serum albumin (BSA) was added to each well containing the test compounds.
As a background control, 30 μL of Assay Buffer 1 containing 12.1 nM of APC anti-His antibody was also added into a second set of serially-diluted compound plates. The test and control samples were spun at 1200 rpm for 1 minute and incubated at room temperature for 15 minutes. The samples were then further incubated at either 27° C. or 29° C. for 60 min. Five microliters of 311 nM biotin labeled consensus DNA (SEQ ID NO.: 2) and 13.03 nM europium-conjugated streptavidin in Assay Buffer 2 (50 mM Tris-HCl, pH 7.4; 75 mM KCl; and 0.2 mg/mL BSA) were added to each well for both the test and control plates. The plates were spun at 1200 rpm for 1 minute and incubated at room temperature for 20 minutes. The assay signals were monitored by reading excitation at 340 nm, and emission fluorescence at 615 nm and 665 nm on a plate reader.
Normalized time-resolved fluorescence resonance energy transfer (TR-FRET) assay signal (Rn) was calculated by the formula: Rn=[(A−Ba−CD)/(D−Bd)](Dc−Bd) where A was the fluorescence intensity of the sample at 665 nm; D was the fluorescence intensity of the sample at 615 nm; Ba and Bd were plate background readings at 665 nm and 615 nm, respectively; and Dc was the fluorescence intensity of 1.8 nM Eu-SA in the assay buffer at 615 nm.
The cross talk factor (C) was determined by the following formula: C═(Ac−Ba)/(DC−Bd) where Ac was the fluorescence intensity of 1.8 nM Eu-labeled anti-FLAG antibody in the assay buffer at 665 nm.
The percentage of activation of protein DNA binding in the presence of a compound of the invention compared to the absence of the compound was denoted by a SC150 value, which indicated the concentration of the compound required to increase the DNA binding activity by 50%. The SC150 values were calculated using either Prism™ or ActivityBase™.

SC150 (μM) | SMILES
′ (′ = 0 μM ≤ SC150 < 0.05 μM) | COc1cc(S(=O)(=O)Nc2ccon2)ccc1NCC#Cc1cc2c(NC3CCC(N(C)C)CC3)cccc2n1CC(F)(F)F (stereo not shown) [Molecule 1188]
′ (′ = 0 μM ≤ SC150 < 0.05 μM) | COCC(O)CN1CCC(Nc2cccc3c2cc(C#CCNc2ccc(S(C)(=O)=O)cc2OC)n3CC(F)(F)F)CC1 (stereo not shown) [Compound 7, 1-{4-[(2-{3-[(4-methanesulfonyl-2-methoxyphenyl)amino]prop-1-yn-1-yl}-1-(2,2,2-trifluoroethyl)-1H-indol-4-yl)amino]piperidin-1-yl}-3-methoxypropan-2-ol]
′ (′ = 0 μM ≤ SC150 < 0.05 μM) | COc1cc(S(N)(=O)=O)ccc1NCC#Cc1cc2c(NC3CCN(C[C@@H](O)CO)CC3)cccc2n1CC(F)(F)F [Molecule 1687]
′′′′ (′′′′ = 0.2 μM ≤ SC150 < 1 μM) | COc1cc(S(C)(=O)=O)ccc1NCC#Cc1cc2c(NC(=O)NC3CCN(CCO)CC3)cccc2n1CC(F)(F)F [Molecule 1155]
′ (′ = 0 μM ≤ SC150 < 0.05 μM) | COc1cc(C(N)=O)ccc1NCC#Cc1cc2c(N[C@H]3CCN(C)C[C@H]3F)cccc2n1CC(F)(F)F [Molecule 1939]
′ (′ = 0 μM ≤ SC150 < 0.05 μM) | COc1cc(C(N)=O)ccc1NCC#Cc1cc2c(N[C@@H]3CCN(C)C[C@@H]3F)cccc2n1CC(F)(F)F [Molecule 1938]
′′′ (′′′ = 0.1 μM ≤ SC150 < 0.2 μM) | COc1cc(S(C)(=O)=O)ccc1NCC#Cc1cc2c(N(C)C)cccc2n1CC(F)(F)F [Molecule 702]
′ (′ = 0 μM ≤ SC150 < 0.05 μM) | CNC(=O)c1ccc(NCC#Cc2cc3c(N[C@H]4CCN(C)C[C@H]4F)cccc3n2CC(F)(F)F)c(OC)c1 [Molecule 1921]
′ (′ = 0 μM ≤ SC150 < 0.05 μM) | CNC(=O)c1ccc(NCC#Cc2cc3c(NC4CCC(N5CC(S(C)(=O)=O)C5)CC4)cccc3n2CC(F)(F)F)c(OC)c1 (stereo not shown) [Molecule 1330]
′ (′ = 0 μM ≤ SC150 < 0.05 μM) | CNC(=O)c1ccc(NCC#Cc2cc3c(N[C@@H]4CCN(C)C[C@@H]4F)cccc3n2CC(F)(F)F)c(OC)c1 [Compound 14, 4-{[3-(4-{[(3S,4R)-3-fluoro-1-methylpiperidin-4-yl]amino}-1-(2,2,2-trifluoroethyl)-1H-indol-2-yl)prop-2-yn-1-yl]amino}-3-methoxy-N-methylbenzamide]
′′′ (′′′ = 0.1 μM ≤ SC150 < 0.2 μM) | COc1cc(C(N)=O)ccc1NCC#Cc1cc2c(NC3C[C@@H](C)O[C@@H](C)C3)cccc2n1CC(F)(F)F (stereo partly shown) [Molecule 2168]
′ (′ = 0 μM ≤ SC150 < 0.05 μM) | CN1CCC(Nc2cccc3c2cc(C#CCNc2ccc(S(C)(=O)=O)cc2O)n3CC(F)(F)F)CC1 [Molecule 1623]
′ (′ = 0 μM ≤ SC150 < 0.05 μM) | COc1cc(S(C)(=O)=O)ccc1NCC#Cc1cc2c(N[C@@H]3CCN(C)C[C@@H]3F)cccc2n1CC(F)(F)F [Compound 13, N-[(3S,4R)-3-fluoro-1-methylpiperidin-4-yl]-2-{3-[(4-methanesulfonyl-2-methoxyphenyl)amino]prop-1-yn-1-yl}-1-(2,2,2-trifluoroethyl)-1H-indol-4-amine]

SMILES | SC150 (μM)
COc1cc(S(C)(=O)=O)ccc1NCC#Cc1cc2c(N[C@H]3CC[C@H](N4CC5CC(C4)O5)CC3)cccc2n1CC(F)(F)F [Compound 10, 2-{3-[(4-methanesulfonyl-2-methoxyphenyl)amino]prop-1-yn-1-yl}-N-[(1r,4r)-4-{6-oxa-3-azabicyclo[3.1.1]heptan-3-yl}cyclohexyl]-1-(2,2,2-trifluoroethyl)-1H-indol-4-amine] | ′ (′ = 0 μM ≤ SC150 < 0.05 μM)

same assay, conditions: concentration required to increase DNA binding activity of p53 Y220C by 50%; TABLE 11

SC150 (μM) | SMILES
+ (+ = 0 μM ≤ SC150 < 2 μM) | CN1CC[C@H](Nc2cccc3c2cc(-c2ccc(CNC(=O)C4CC4)cc2)n3CC(F)(F)F)[C@H](F)C1 [Molecule 2240]
+ (+ = 0 μM ≤ SC150 < 2 μM) | CN1CC[C@H](Nc2cccc3c2cc(-c2ccc(CNC(=O)c4ccccc4)cc2)n3CC(F)(F)F)[C@H](F)C1 [Molecule 2239]

same assay, conditions: concentration required to increase DNA binding activity of p53 Y220C by 50%; TABLE 12

SC150 (μM) | SMILES
* (* = 0 μM ≤ SC150 < 0.1 μM) | O=S1(=O)CCC(Nc2cccc3c2cc(-c2cccc(Cl)c2)n3CC(F)(F)F)CC1 [Molecule 2206]
** (** = 0.1 μM ≤ SC150 < 0.5 μM) | N#Cc1cccc(-c2cc3c(NC4CCS(=O)(=O)CC4)cccc3n2CC(F)(F)F)c1 [Molecule 2204]
** (** = 0.1 μM ≤ SC150 < 0.5 μM) | Cc1ccc(-c2cc3c(NC4CCS(=O)(=O)CC4)cccc3n2CC(F)(F)F)c(F)c1 [Molecule 2205]
